Drawing on patent US7632811B2, “Analogs of parathyroid hormone” (Societe de Conseils de Recherches et D'Applications …, priority 1995, dated 2009), this text covers Kd for six compounds.

Non-standard residues stand in square brackets, D forms with d. Residues, ends and D or L forms follow the SMILES beside them. Cha = N[C@@H](CC1CCCCC1)C(=O)O; Ac6c = NC1(C(=O)O)CCCCC1; Nle = CCCC[C@H](N)C(=O)O; Aib = CC(C)(N)C(=O)O

In general, Kd refers to the equilibrium constant for the complex coming apart.

For the first test, the target named is T1, PTH receptor present on SaOS-2 (human osteosarcoma cells) (Homo sapiens, UniProt Q03431).
T1 construct: host or cells: SaOS-2 human osteosarcoma cells (intact, confluent monolayers)
T1 sequence (Q03431 27-593): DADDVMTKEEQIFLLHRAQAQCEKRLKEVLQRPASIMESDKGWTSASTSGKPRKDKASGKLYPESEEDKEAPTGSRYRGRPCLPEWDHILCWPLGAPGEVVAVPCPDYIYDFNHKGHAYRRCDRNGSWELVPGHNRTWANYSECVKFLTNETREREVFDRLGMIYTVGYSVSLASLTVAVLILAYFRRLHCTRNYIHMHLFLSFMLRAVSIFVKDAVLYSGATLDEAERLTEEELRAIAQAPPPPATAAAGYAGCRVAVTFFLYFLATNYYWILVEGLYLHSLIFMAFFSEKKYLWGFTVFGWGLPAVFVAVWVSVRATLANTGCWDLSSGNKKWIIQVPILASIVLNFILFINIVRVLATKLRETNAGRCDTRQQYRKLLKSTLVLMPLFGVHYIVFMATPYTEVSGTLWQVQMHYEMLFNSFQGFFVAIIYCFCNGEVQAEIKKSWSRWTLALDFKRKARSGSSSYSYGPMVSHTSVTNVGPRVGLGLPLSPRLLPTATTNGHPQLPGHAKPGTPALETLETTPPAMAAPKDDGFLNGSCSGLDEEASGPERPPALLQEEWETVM
In words: Binding to PTH receptor on SaOS-2 cells (competition with mono-125I-[Nle8,18,Tyr34(3-125I)]bPTH(1-34)NH2). The note with it: Table I, 2 hrs at room temperature, read-out: Kd (half maximal inhibition of binding of mono-125I-[Nle8,18, Tyr34(3-125I)]bPTH(1-34)NH2). On the procedure: A. Binding to PTH Receptor
The peptides of the invention were tested for their ability to bind to the PTH receptor present on SaOS-2 (human osteosarcoma cells). SaOS-2 cells (American Type Culture Collection, Rockville, Md.; ATCC #HTB 85) were maintained in RPMI 1640 medium (Sigma, St. Louis, Mo.) supplemented with 10% fetal bovine serum (FBS) and 2 mM glutamine at 37EC in a humidified atmosphere of 5% CO2 in air. The medium was changed every three or four days, and the cells were subcultured every week by trypsinization.
SaOS-2 cells were maintained for four days until they had reached confluence. The medium was replaced with 5% FBS in RPMI 1640 medium and incubated for 2 hrs at room temperature with 10×10^4 cpm mono-^125I-[Nle^8,18, Tyr^34(3-^125I)]bPTH(1-34)NH2 in the presence of a competing peptides of the invention at various concentrations between 10^−11 M to 10^−4 M. The cells were washed four times with ice-cold PBS and lysed with 0.1 M NaOH, and the radioactivity associated with the cells was counted in a scintillation counter. Synthesis of mono-^125I-[Nle^8,18, Tyr^34(3-^125I)]bPTH(1-34)NH2 was carried out as described in Goldman, M. E., et al., Endocrinol., 123:1468 (1988).
The binding assay was conducted with various peptides of the invention, and the Kd value (half maximal inhibition of binding of mono-^125I-[Nle^8,18, Tyr^34(3-^125I)]bPTH(1-34)NH2) for each peptide was calculated.
On to `CCCC[C@H](NC(=O)[C@H](CO)NC(=O)[C@H](CC(N)=O)NC(=O)[C@H](CC(C)C)NC(=O)[C@H](Cc1c[nH]cn1)NC(=O)[C@H](CCCCN)NC(=O)CNC(=O)[C@H](CC1CCCCC1)NC(=O)[C@H](CC(N)=O)NC(=O)[C@H](Cc1c[nH]cn1)NC(=O)[C@H](CCCC)NC(=O)[C@H](CC1CCCCC1)NC(=O)[C@H](CCC(N)=O)NC(=O)[C@@H](NC(=O)[C@H](CCC(=O)O)NC(=O)[C@H](CO)NC(=O)[C@@H](NC(=O)[C@@H](N)CO)C(C)C)[C@@H](C)CC)C(=O)N[C@@H](CCC(=O)O)C(=O)N[C@@H](CCCNC(=N)N)C(=O)N[C@H](C(=O)N[C@@H](CCC(=O)O)C(=O)N[C@@H](Cc1c[nH]c2ccccc12)C(=O)N[C@@H](CC(C)C)C(=O)N[C@@H](CCCNC(=N)N)C(=O)N[C@@H](CCCCN)C(=O)N[C@@H](CCCCN)C(=O)N[C@@H](CC(C)C)C(=O)N[C@@H](CCC(N)=O)C(=O)N[C@@H](CC(=O)O)C(=O)N[C@H](C(=O)N[C@@H](Cc1c[nH]cn1)C(=O)N[C@@H](CC(N)=O)C(=O)N[C@@H](Cc1ccc(O)cc1)C(N)=O)C(C)C)C(C)C` [[Cha^7,11, Nle^8,18, Tyr^34]hPTH(1-34)NH2] (H-SVSEIQ[Cha][Nle]HN[Cha]GKHLNS[Nle]ERVEWLRKKLQDVHNY-NH2), for which the Kd was 6 nM. Consider `CC[C@H](C)[C@H](NC(=O)[C@H](CCC(=O)O)NC(=O)[C@H](CO)NC(=O)[C@@H](NC(=O)[C@@H](N)CO)C(C)C)C(=O)N[C@@H](CCC(N)=O)C(=O)N[C@@H](CC1CCCCC1)C(=O)N[C@@H](CCSC)C(=O)N[C@@H](Cc1c[nH]cn1)C(=O)N[C@@H](CC(N)=O)C(=O)N[C@@H](CC1CCCCC1)C(=O)NCC(=O)N[C@@H](CCCCN)C(=O)N[C@@H](Cc1c[nH]cn1)C(=O)N[C@@H](CC(C)C)C(=O)N[C@@H](CC(N)=O)C(=O)N[C@@H](CO)C(=O)N[C@@H](CCSC)C(=O)N[C@@H](CCC(=O)O)C(=O)N[C@@H](CCCNC(=N)N)C(=O)N[C@H](C(=O)N[C@@H](CCC(=O)O)C(=O)N[C@@H](Cc1c[nH]c2ccccc12)C(=O)N[C@@H](CC(C)C)C(=O)N[C@@H](CCCNC(=N)N)C(=O)N[C@@H](CCCCN)C(=O)N[C@@H](CCCCN)C(=O)N[C@@H](CC(C)C)C(=O)N[C@@H](CCC(N)=O)C(=O)N[C@@H](CC(=O)O)C(=O)N[C@H](C(=O)N[C@@H](Cc1c[nH]cn1)C(=O)N[C@@H](CC(N)=O)C(=O)N[C@@H](Cc1ccccc1)C(N)=O)C(C)C)C(C)C` [[Cha^7,11]hPTH(1-34)NH2] (H-SVSEIQ[Cha]MHN[Cha]GKHLNSMERVEWLRKKLQDVHNF-NH2), for which the dissociation constant (Kd) worked out at 10 nM. Same read-out and setting: then `CC[C@H](C)[C@H](NC(=O)[C@H](CCC(=O)O)NC(=O)[C@H](CO)NC(=O)[C@@H](NC(=O)[C@@H](N)CO)C(C)C)C(=O)N[C@@H](CCC(N)=O)C(=O)N[C@@H](CC1CCCCC1)C(=O)N[C@@H](CCSC)C(=O)N[C@@H](Cc1c[nH]cn1)C(=O)N[C@@H](CC(N)=O)C(=O)N[C@@H](CC(C)C)C(=O)NCC(=O)N[C@@H](CCCCN)C(=O)N[C@@H](Cc1c[nH]cn1)C(=O)N[C@@H](CC(C)C)C(=O)N[C@@H](CC(N)=O)C(=O)N[C@@H](CO)C(=O)N[C@@H](CCSC)C(=O)N[C@@H](CCC(=O)O)C(=O)N[C@@H](CCCNC(=N)N)C(=O)N[C@H](C(=O)N[C@@H](CCC(=O)O)C(=O)N[C@@H](Cc1c[nH]c2ccccc12)C(=O)N[C@@H](CC(C)C)C(=O)N[C@@H](CCCNC(=N)N)C(=O)N[C@@H](CCCCN)C(=O)N[C@@H](CCCCN)C(=O)N[C@@H](CC(C)C)C(=O)N[C@@H](CCC(N)=O)C(=O)N[C@@H](CC(=O)O)C(=O)N[C@H](C(=O)N[C@@H](Cc1c[nH]cn1)C(=O)N[C@@H](CC(N)=O)C(=O)N[C@@H](Cc1ccccc1)C(N)=O)C(C)C)C(C)C` [[Cha^7]hPTH(1-34)NH2] (H-SVSEIQ[Cha]MHNLGKHLNSMERVEWLRKKLQDVHNF-NH2), with 20 nM; and `CC[C@H](C)[C@H](NC(=O)[C@H](CCC(=O)O)NC(=O)[C@H](CO)NC(=O)[C@@H](NC(=O)[C@@H](N)CO)C(C)C)C(=O)N[C@@H](CCC(N)=O)C(=O)N[C@@H](CC(C)C)C(=O)N[C@@H](CCSC)C(=O)N[C@@H](Cc1c[nH]cn1)C(=O)N[C@@H](CC(N)=O)C(=O)N[C@@H](CC1CCCCC1)C(=O)NCC(=O)N[C@@H](CCCCN)C(=O)N[C@@H](Cc1c[nH]cn1)C(=O)N[C@@H](CC(C)C)C(=O)N[C@@H](CC(N)=O)C(=O)N[C@@H](CO)C(=O)N[C@@H](CCSC)C(=O)N[C@@H](CCC(=O)O)C(=O)N[C@@H](CCCNC(=N)N)C(=O)N[C@H](C(=O)N[C@@H](CCC(=O)O)C(=O)N[C@@H](Cc1c[nH]c2ccccc12)C(=O)N[C@@H](CC(C)C)C(=O)N[C@@H](CCCNC(=N)N)C(=O)N[C@@H](CCCCN)C(=O)N[C@@H](CCCCN)C(=O)N[C@@H](CC(C)C)C(=O)N[C@@H](CCC(N)=O)C(=O)N[C@@H](CC(=O)O)C(=O)N[C@H](C(=O)N[C@@H](Cc1c[nH]cn1)C(=O)N[C@@H](CC(N)=O)C(=O)N[C@@H](Cc1ccccc1)C(N)=O)C(C)C)C(C)C` [[Cha^11]hPTH(1-34)NH2] (H-SVSEIQLMHN[Cha]GKHLNSMERVEWLRKKLQDVHNF-NH2), with 5 nM. For the compound `CC[C@H](C)[C@H](NC(=O)[C@H](CCC(=O)O)NC(=O)[C@H](CO)NC(=O)[C@@H](NC(=O)[C@@H](N)CO)C(C)C)C(=O)N[C@@H](CCC(N)=O)C(=O)N[C@@H](CC(C)C)C(=O)N[C@@H](CCSC)C(=O)N[C@@H](Cc1c[nH]cn1)C(=O)N[C@@H](CC(N)=O)C(=O)N[C@@H](CC(C)C)C(=O)NCC(=O)N[C@@H](CCCCN)C(=O)N[C@@H](Cc1c[nH]cn1)C(=O)N[C@@H](CC1CCCCC1)C(=O)N[C@@H](CC(N)=O)C(=O)N[C@@H](CO)C(=O)N[C@@H](CCSC)C(=O)N[C@@H](CCC(=O)O)C(=O)N[C@@H](CCCNC(=N)N)C(=O)N[C@H](C(=O)N[C@@H](CCC(=O)O)C(=O)N[C@@H](Cc1c[nH]c2ccccc12)C(=O)N[C@@H](CC(C)C)C(=O)N[C@@H](CCCNC(=N)N)C(=O)N[C@@H](CCCCN)C(=O)N[C@@H](CCCCN)C(=O)N[C@@H](CC(C)C)C(=O)N[C@@H](CCC(N)=O)C(=O)N[C@@H](CC(=O)O)C(=O)N[C@H](C(=O)N[C@@H](Cc1c[nH]cn1)C(=O)N[C@@H](CC(N)=O)C(=O)N[C@@H](Cc1ccccc1)C(N)=O)C(C)C)C(C)C` [[Cha^15]hPTH(1-34)NH2] (H-SVSEIQLMHNLGKH[Cha]NSMERVEWLRKKLQDVHNF-NH2), the Kd stood at 5 nM.

Still in this test, the particulars now being: Table II, 2 hrs at room temperature, read-out: Kd (half maximal inhibition of binding of mono-125I-[Nle8,18, Tyr34(3-125I)]bPTH(1-34)NH2).
`CC[C@H](C)[C@H](NC(=O)[C@H](CO)NC(=O)[C@H](CCCCN)NC(=O)CNC(=O)[C@H](CCCCN)NC(=O)[C@H](CC(=O)O)NC(=O)[C@H](Cc1c[nH]cn1)NC(=O)[C@H](CC(C)C)NC(=O)[C@H](CC(C)C)NC(=O)[C@H](CCC(N)=O)NC(=O)[C@H](Cc1c[nH]cn1)NC(=O)[C@H](CCC(=O)O)NC(=O)[C@H](CO)NC(=O)[C@@H](NC(=O)[C@H](C)N)C(C)C)C(=O)N[C@@H](CCC(N)=O)C(=O)N[C@@H](CC(=O)O)C(=O)N[C@@H](CC(C)C)C(=O)N[C@@H](CCCNC(=N)N)C(=O)N[C@@H](CCCNC(=N)N)C(=O)N[C@@H](CCCNC(=N)N)C(=O)N[C@@H](CC1CCCCC1)C(=O)N[C@@H](CC(C)C)C(=O)N[C@@H](CC(C)C)C(=O)N[C@@H](CCC(=O)O)C(=O)N[C@@H](CCCCN)C(=O)NC1(C(=O)N[C@@H](CC(C)C)C(=O)NC(C)(C)C(=O)N[C@@H](CCCCN)C(=O)N[C@@H](CC(C)C)C(=O)N[C@@H](Cc2c[nH]cn2)C(=O)N[C@H](C(=O)N[C@@H](C)C(N)=O)[C@@H](C)O)CCCCC1` [[Cha^22, Leu^23,28,31, Glu^25, Lys^26,30, Ahc^27, Aib^29]hPTHrP(1-34)NH2] (H-AVSEHQLLHDKGKSIQDLRRR[Cha]LLEK[Ac6c]L[Aib]KLHTA-NH2): the Kd was determined as 60 nM.
